The text below walks through data of patent US20170008928A1, “NOVEL PEPTIDES AND PEPTIDE DERIVATIVES AND USES THEREOF” (Novo Nordisk A/S, priority 2015, published 2017).

SMILES strings stand for the structures. Read-outs that look alike come from different tables or passages of the source. Starred links: 1 amine or outer side, 2 acyl side, 3 side chain; linkers in the order of their positions; H or OH if unused. Non-standard residues stand in square brackets, D forms with d. Residues, ends and D or L forms follow the SMILES beside them. *: point of attachment. sY = N[C@@H](Cc1ccc(OS(=O)(=O)O)cc1)C(=O)O; C18 diacid = O=C(O)CCCCCCCCCCCCCCCCC(=O)*; γGlu = O=C(O)[C@H](CCC(=O)[*:2])N[*:1]; 2Nal = N[C@@H](Cc1ccc2ccccc2c1)C(=O)O; NMeF = CN[C@@H](Cc1ccccc1)C(=O)O; dNMeD = CN[C@H](CC(=O)O)C(=O)O; Nle = CCCC[C@H](N)C(=O)O; AEEA = NCCOCCOCC(=O)O Where only a bound is given, the exact number is not on record here.

Test [1] addresses T1, human cholecystokinin-2 receptor (CCK-2R) (Homo sapiens, UniProt P32239).
T1 construct: host or cells: 1321-N1 cells (plasma membranes prepared by Evotec AG Hamburg)
T1 sequence (P32239 1-447): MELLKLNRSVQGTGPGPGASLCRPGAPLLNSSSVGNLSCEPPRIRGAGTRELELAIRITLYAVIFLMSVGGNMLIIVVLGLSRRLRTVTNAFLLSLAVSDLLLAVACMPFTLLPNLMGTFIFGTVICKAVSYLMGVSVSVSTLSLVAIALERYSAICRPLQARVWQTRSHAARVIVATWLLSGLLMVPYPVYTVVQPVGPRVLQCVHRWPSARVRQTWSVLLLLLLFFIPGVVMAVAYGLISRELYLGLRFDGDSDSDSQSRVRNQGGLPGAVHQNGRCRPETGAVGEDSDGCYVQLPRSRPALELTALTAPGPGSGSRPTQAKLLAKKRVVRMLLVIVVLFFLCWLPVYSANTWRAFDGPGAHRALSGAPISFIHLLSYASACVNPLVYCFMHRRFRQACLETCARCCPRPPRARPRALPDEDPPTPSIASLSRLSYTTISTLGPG
In words: In vitro potency on CCK-2R, whole cell functional assay (IP1 accumulation, IP-One HTRF). The class given is cell-based.

The target in test [2] is T1, human cholecystokinin-2 receptor (CCK-2R). As to the kind of experiment: In vitro receptor binding to CCK-2R, SPA displacement of [125I]-CCK-8s from plasma membranes. The protocol:
(§1) The in vitro binding affinity is a measure of the strength of attraction between a receptor and its ligand.
(§2) Displacement of radio ligand was measured as reduction in light emission from SPA beads.
(§3) The cells used in these assays were 1321-N1 cells stably expressing the CCK-1R or the CCK-2R (Perkin Elmer product numbers ES-530-A and ES-531-A, respectively see www.perkinelmer.com/Catalog/Product/ID/ES-530-A or -ES-531-A, respectively).
(§4) The cells were cultured in an incubator (95% RH (relative humidity), 5% (of standard atmospheric pressure) CO2, 37° C.) in cell culture medium (DMEM (Lonza catalogue BE-12-604F/U1), with 10% (v/v) Foetal Calf Serum (FCS, Gibco catalogue 16140-071), 1% (w/w) Sodium pyruvate (Gibco catalogue 11360-039), 500 μg/ml Geneticin® (G418) (Gibco catalogue 10131-027), 25 μg/ml Zeocin™ (Invitrogen catalogue R250-05), 1% (w/w) Pen/Strep (Gibco catalogue 15140-122)).
(§5) Plasma membranes were prepared by Evotec AG Hamburg by use of the ParrBomb (#4635, Parr Instrument Company). Cells were lysed with a lysis buffer (50 mM Tris, 2.5 mM EDTA, pH7) with added protease inhibitors (Complete Proteaseinhibitors EDTA-free (#05056489001, Roche), 1 tablet per 50 mL lysis buffer). The membrane fraction was separated by centrifugation. First, the cell lysate was centrifuged at 1000×g for 10 minutes at 4° C. The pellet was discarded and the supernatant was then centrifuged at 100.000×g for 30 minutes at 4° C. The supernatant was discarded and the pellet was re-suspended in 1 ml/5×10^8 cells ice cold membrane buffer (50 mM Tris, 320 mM Sucrose and Complete Proteaseinhibitors EDTA-free (#05056489001, Roche); pH7.4) and homogenised with dounce homogeniser. The protein concentration was determined using the Pierce™ BCA Protein Assay Kit according to kit manual, and the membrane preparation was adjust to the desired protein concentration with membrane buffer and aliquoted into pre-cooled tubes, snap-frozen in liquid nitrogen, and stored at −80° C.
(§6) CCK receptor binding assays were performed in 96-well Optiplates (Cat #6005290, PerkinElmer, Waltham, Mass., USA) in a total volume of 200 μl per well. CCK derivatives in 80% DMSO stock solutions of 800 μM were serially diluted […] in assay buffer (50 mM Tris/HCl, 4.5 mM MgCl2, […], 0.02% Tween 20, 0.25% ovalbumin, 0.1% pluronic F-68, pH 7.4) to final assay concentrations ranging from 10^−5 M (ten μM) to 10^−12 M (one pM).
(§7) Fifty μl of reference or test compounds were added to the Optiplates (using technical duplicates, i.e. two wells of each sample, one data point being the average of two wells), followed by addition of 150 μl of the mixture of SPA bead, radio ligand, and plasma membrane. The plates were sealed and incubated in the dark at +22° C. for 2 hours on a IKA MTS plate shaker (IKA-Werke D-79219 Staufen) set at 300 rpm and thereafter centrifuged at 1500 rpm for 10 minutes in a Heraeus Multifuge 3s centrifuge. SPA bead light emission was measured in a TopCount NXT (PerkinElmer) for 2 min/well after a delay of 60 min.
(§8) As a measure of compound affinity, calculations were performed in order to determine the half maximal inhibitory concentration (the IC50 value).
(§9) The data from the TopCounter were given as counts per minute (CPM). The CPM was plotted as a function of the concentration of compound. Dose-response curves were obtained, and IC50 values were calculated, by a nonlinear three-parameter logistic equation (log(agonist) vs response) with hillslope=−1, and shared top and bottom using the software programme GraphPad Prism v 6.0 (Graph Pad software, La Jolla, Calif., USA). The highest dose tested was 10^−5 M (1×10^7 pM).
(§10) The preference of a specific compound for the CCK-1 receptor, or the CCK-1R selectivity, may be defined as IC50 (CCK-2R)/IC50 (CCK-1R).
(§11) A minimum of three biological replicates was measured for each test compound on separate assay plates.
On the technique in general: Displacement assays read how much labelled ligand stays bound in the presence of the test substance.

The target in test [3] is T2, human cholecystokinin-1 receptor (CCK-1R) (Homo sapiens, UniProt P32238).
T2 construct: host or cells: 1321-N1 cells
T2 sequence (P32238 1-428): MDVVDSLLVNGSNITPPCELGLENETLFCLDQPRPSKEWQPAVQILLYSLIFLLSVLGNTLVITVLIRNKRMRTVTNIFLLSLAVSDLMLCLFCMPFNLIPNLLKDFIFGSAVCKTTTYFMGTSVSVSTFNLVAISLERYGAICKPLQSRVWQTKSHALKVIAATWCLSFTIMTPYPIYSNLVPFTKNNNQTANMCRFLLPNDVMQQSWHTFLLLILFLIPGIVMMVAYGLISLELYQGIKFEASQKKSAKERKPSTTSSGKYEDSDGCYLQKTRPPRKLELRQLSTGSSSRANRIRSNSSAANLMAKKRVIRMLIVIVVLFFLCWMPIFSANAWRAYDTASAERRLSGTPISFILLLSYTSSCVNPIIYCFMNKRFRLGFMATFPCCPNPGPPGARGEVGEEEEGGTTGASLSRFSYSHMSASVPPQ
In words: In vitro receptor binding to CCK-1R, SPA displacement of [125I]-CCK-8s from plasma membranes. As for the experimental part:
as §1, §2, §3, §4, §5, §6, §7, §8, §9, §10, §11

Setting [4] is: displacement of [125I]-CCK-8s, plasma membranes of 1321-N1 cells expressing CCK-1R, read-out: IC50 (CCK-1R).

In general, EC50 refers to the concentration at which the effect is half-maximal. A word on the IC50: it is the point on the concentration scale where inhibition reaches its midpoint. Compound `CC(C)C[C@H](NC(=O)[C@H](Cc1ccc(OS(=O)(=O)O)cc1)NC(=O)[C@H](CC(=O)O)NC(=O)COCCOCCNC(=O)COCCOCCNC(=O)CC[C@H](NC(=O)CCCCCCCCCCCCCCCCC(=O)O)C(=O)O)C(=O)NCC(=O)N[C@@H](Cc1c[nH]c2ccccc12)C(=O)N[C@@H](CCC(N)=O)C(=O)N(C)[C@H](CC(=O)O)C(=O)N(C)[C@@H](Cc1ccccc1)C(N)=O` [Example 11, 2-[2-[2-[[2-[2-[2-[[(4S)-4-Carboxy-4-(17-carboxyheptadecanoylamino)butanoyl]amino]ethoxy]ethoxy]acetyl]amino]ethoxy]ethoxy]acetyl-Asp-sTyr-Leu-Gly-Trp-Gln-DMeAsp-MePhe-amide] ({C18 diacid-γGlu-AEEA-AEEA}-D[sY]LGWQ[dNMeD][NMeF]-NH2) showed an EC50 in test [1] above 1000 nM. For the same compound, the IC50 in test [2] is above 10000 nM; in test [3], 0.084 nM.

Compound `CC(C)C[C@H](NC(=O)[C@H](Cc1ccc(OS(=O)(=O)O)cc1)NC(=O)[C@@H](N)CC(=O)O)C(=O)NCC(=O)N[C@@H](Cc1c[nH]c2ccccc12)C(=O)N[C@H](C(=O)N(C)[C@H](CC(=O)O)C(=O)N(C)[C@@H](Cc1ccccc1)C(N)=O)C(C)C` [Example 65, Asp-sTyr-Leu-Gly-Trp-Val-DMeAsp-MePhe-amide] (H-D[sY]LGWV[dNMeD][NMeF]-NH2) displayed an EC50 in test [1] above 1000 nM. Also, the figures for the IC50 in test [2] and in test [3] were above 10000 nM and 0.62 nM, respectively.

On to `CCCC[C@H](NC(=O)[C@H](Cc1c[nH]c2ccccc12)NC(=O)CNC(=O)[C@H](CC(C)C)NC(=O)[C@H](Cc1ccc(OS(=O)(=O)O)cc1)NC(=O)[C@H](CCC(=O)O)NC(=O)COCCOCCNC(=O)COCCOCCNC(=O)CC[C@H](NC(=O)CCCCCCCCCCCCCCCCC(=O)O)C(=O)O)C(=O)N(C)[C@H](CC(=O)O)C(=O)N[C@@H](Cc1ccccc1)C(N)=O` [Example 52, 2-[2-[2-[[2-[2-[2-[[(4S)-4-Carboxy-4-(17-carboxyheptadecanoylamino)butanoyl]amino]ethoxy]ethoxy]acetyl]amino]ethoxy]ethoxy]acetyl-Glu-sTyr-Leu-Gly-Trp-Nle-DMeAsp-Phe-amide] ({C18 diacid-γGlu-AEEA-AEEA}-E[sY]LGW[Nle][dNMeD]F-NH2), for which the IC50 is 480 nM in test [2] (displacement of [125I]-CCK-8s, plasma membranes of 1321-N1 cells expressing CCK-2R, highest dose tested 1×10^7 pM, read-out: IC50 (CCK-2R)) and 0.049 nM in test [3] (setting [4]).

Consider `CC(C)C[C@H](NC(=O)[C@H](Cc1ccc(OS(=O)(=O)O)cc1)NC(=O)[C@@H](N)CC(=O)O)C(=O)NCC(=O)N[C@@H](Cc1c[nH]c2ccccc12)C(=O)N[C@@H](CCC(N)=O)C(=O)N(C)[C@H](CC(=O)O)C(=O)N(C)[C@@H](Cc1ccccc1)C(N)=O` [Example 62, Asp-sTyr-Leu-Gly-Trp-Gln-DMeAsp-MePhe-amide] (H-D[sY]LGWQ[dNMeD][NMeF]-NH2), for which the EC50 in test [1] is above 1000 nM. Besides, the figures for the IC50 in test [2] and in test [3] were above 10000 nM and 0.075 nM, respectively.

On to `CCCC[C@H](NC(=O)[C@H](Cc1c[nH]c2ccccc12)NC(=O)CNC(=O)[C@H](CC(C)C)NC(=O)[C@H](Cc1ccc(OS(=O)(=O)O)cc1)NC(=O)[C@H](CC(=O)O)NC(=O)COCCOCCNC(=O)COCCOCCNC(=O)CC[C@H](NC(=O)CC[C@H](NC(=O)CCCCCCCCCCCCCCCCC(=O)O)C(=O)O)C(=O)O)C(=O)N(C)[C@H](CC(=O)O)C(=O)N(C)[C@@H](Cc1ccccc1)C(N)=O` [Example 28, 2-[2-[2-[[2-[2-[2-[[(4S)-4-Carboxy-4-[[(4S)-4-carboxy-4-(17-carboxyheptadecanoylamino)butanoyl]amino]butanoyl]amino]ethoxy]ethoxy]acetyl]amino]ethoxy]ethoxy]acetyl-Asp-sTyr-Leu-Gly-Trp-Nle-DMeAsp-MePhe-amide], for which the half-inhibitory concentration (IC50) in test [3] (setting [4]) was determined as 0.1 nM.

Consider `CC[C@H](C)[C@H](NC(=O)[C@H](Cc1c[nH]c2ccccc12)NC(=O)CNC(=O)[C@H](CC(C)C)NC(=O)[C@H](Cc1ccc(OS(=O)(=O)O)cc1)NC(=O)[C@H](CC(=O)O)NC(=O)COCCOCCNC(=O)COCCOCCNC(=O)CC[C@H](NC(=O)CCCCCCCCCCCCCCCCC(=O)O)C(=O)O)C(=O)N(C)[C@H](CC(=O)O)C(=O)N(C)[C@@H](Cc1ccccc1)C(N)=O` [Example 10, 2-[2-[2-[[2-[2-[2-[[(4S)-4-Carboxy-4-(17-carboxyheptadecanoylamino)butanoyl]amino]ethoxy]ethoxy]acetyl]amino]ethoxy]ethoxy]acetyl-Asp-sTyr-Leu-Gly-Trp-Ile-DMeAsp-MePhe-amide] ({C18 diacid-γGlu-AEEA-AEEA}-D[sY]LGWI[dNMeD][NMeF]-NH2), for which the IC50 was determined as 2300 nM in test [2] and 0.1 nM in test [3].

`CCCC[C@H](NC(=O)[C@H](Cc1c[nH]c2ccccc12)NC(=O)CNC(=O)[C@H](CC(C)C)NC(=O)[C@H](Cc1ccc(OS(=O)(=O)O)cc1)NC(=O)[C@H](CC(=O)O)NC(=O)COCCOCCNC(=O)COCCOCCNC(=O)CC[C@H](NC(=O)CCCCCCCCCCCCCCCCC(=O)O)C(=O)O)C(=O)N(C)[C@H](CC(=O)O)C(=O)N[C@@H](Cc1ccc2ccccc2c1)C(N)=O` [Example 50, 2-[2-[2-[[2-[2-[2-[[(4S)-4-Carboxy-4-(17-carboxyheptadecanoylamino)butanoyl]amino]ethoxy]ethoxy]acetyl]amino]ethoxy]ethoxy]acetyl-Asp-sTyr-Leu-Gly-Trp-Nle-DMeAsp-2Nal-amide] ({C18 diacid-γGlu-AEEA-AEEA}-D[sY]LGW[Nle][dNMeD][2Nal]-NH2): in test [3] (setting [4]), the IC50 is 0.14 nM.
